Assay results as given in patent US9872875B2, “Component and method for treating viral disease” (Institut Pasteur of Shanghai, Chinese Academy of Sciences, priority 2012, dated 2018).

Legend:
[1] = system: EV71 M.A.V. (mouse-adapted strain); experiment: EV71 M.A.V. TCID50 in RD cells; assay type: cell-based, Enterovirus 71
Excerpt: EV71 M.A.V. in 10-fold serial dilutions was used to infect RD cells at different E02 concentrations. After cultured for 3-4 days, CPE was observed under optical microscope, and stained with crystal violet, to calculate 50% tissue culture infective dose. Specific steps are similar to that for testing corresponding TCID50 of Example 1.

[2] = system: EV71 M.A.V. (mouse-adapted strain); experiment: EV71 M.A.V. PFU in RD cells; assay type: cell-based, Enterovirus 71; conditions: Enterovirus A, read-out: EC50 to reduce EV71 M.A.V. PFU in RD cells
Description: EV71 M.A.V. was used to infect RD cells cultured in 12-well plates at different E02 concentrations. After cultured for 5 to 7 days, stained and plaque-forming units were calculated. Detailed procedures were the same as the corresponding PFU testing method of Example 1.

[3] = system: CVA16; experiment: CVA16 infection in ICR newborn mice, viral RNA in tissues and serum; assay type: in vivo; conditions: 50 mg/kg of E02 intraperitoneally; 6 days after infection
Description: 5×10^6 TCID50 CVA16 viruses (50 μl) were injected to infect two three-day-old ICR newborn mice. Five days after infection, serum and tissues (brain, bone marrow, heart, intestine, kidney, liver, lung, muscle, spleen, and thymus) were collected. Viral RNA in serum was extracted (viral RNA extraction kit, QIAGEN QIAamp Viral RNA Mini Kit, cat #52906). Tissue samples were placed in RNAstore preservation solution (Tiangen, DP408-02) and stored in −80° C. refrigerator. Total tissue RNA was extracted using tissue RNA extraction kit (RNAprep pure total animal tissue RNA extraction kit). Copies of CVA16 viral genome and GAPDH gene were detected using one-step real-time quantitative RT-PCR kit (QIAGEN QuantiTect SYBR Green RT-PCR Kit) in ABI 7900HT 384-well plate PCR system. Primers are the same as that of EV71 5′UTR primers. See Table 3 and Table 4 for reaction system and PCR program. See FIG. 8 for relative viral load in each tissue and serum. Clearly, CVA16 virus was detected mainly in brain, spinal cord, muscle, and serum.
Three-day-old ICR newborn mice were infected with CVA16 to test E02's efficacy to inhibit EV71 in vivo. Test mice were divided into three groups: drug group, infection group, and placebo group. […] RNA from tissues and serum were extracted and CVA16 viral RNA determined Treatment procedures were the same as previously described in “1.”

[4] = system: EV71 clinical isolate SH-TS; experiment: EV71 SH-TS replication in RD cells, quantitative RT-PCR; assay type: cell-based, Enterovirus 71; conditions: MOI 0.1, 46 h
Description: RD cells were infected with EV71 SH-TS or SH-RS at different E02 concentrations, at the MOI of 0.1. After cultured for 46 h, viral RNA in culture supernatant was extracted. Relative EV71 viral load was determined by quantitative RT-PCR. See Example 1 for specific procedures of quantitative RT-PCR.

[5] = system: EV71 clinical isolate EV71 FY573; experiment: Time of E02 addition assay, EV71 in RD cells; assay type: cell-based, Enterovirus 71; conditions: 32 μM of E02, MOI 10, 18 h
Description: RD cells in 96-well plates were infected with MOI 10 EV71 clinical isolate EV71 FY573. In three periods at prior to, during, and post infection, 32 μM of E02 (dissolved in DMEM) or DMEM were added, EV71 replication was measured to determine the stage, in which E02 inhibits EV71 infection. Steps are detailed as follows:
(1) Cell seeding: 24 h prior to infection, RD cells were seeded in 96-well cell culture plates, 5×10^4 cells per well;
(2) Cells pre-incubated with drug: cell culture medium was removed from 96-well plates, each well was added 100 μl of DMEM, and then added 11 μl of 320 μM E02 solution (cell group treated with drug) or 11 μl of DMEM (cell group without drug treatment), incubated at 37° C. for 1 h.
(3) Virus pre-incubated with drug: virus stock solution was diluted to 5×10^6 TCID50/ml with DMEM, dispensed to 96-well plates at 100 μl per well, and 11 μl of 320 μM E02 solution (B and C groups) or 11 μl of DMEM (A and F groups) were added, and incubated at 37° C. for 1 h.
(4) Infection: After cells and virus were incubated for one hour, drug was discarded from cell culture plates. 111 μl of pre-incubated virus with drug (B and C groups) or DMEM (A and F groups) was transferred to cell culture plates. After 100 μl of virus solution was transferred to D and E groups, 11 μl of 320 μM E02 was added, and incubated at 37° C. for 1 h.
(5) One hour after viral infection of cells, virus and drug mixture was discarded from cell culture plates. Cells were washed twice with 50 μl of DMEM. 180 μl per well of DMEM containing 2% FBS, 20 μl of 320 μM E02 solution (B, E, and F groups) or 20 μl of DMEM (A, C, and D groups) were added. […]
(7) Viral load determination: EV71 5′UTR gene was detected using ABI Taqman one-step RT-PCR kit (ABI taqMan® One-Step RT-PCR, Cat #4309169) in ABI 7900HT 384-well plates PCR system. […]
(8) PCR standard curves were used to convert CT values of PCR to viral load (standard curves were obtained by CT values determined by performing RT-PCR on RNA extracted from viruses with defined titers at 10-fold serial dilutions). […]

Cc1ccc(C(=O)Nc2ccc(S(=O)(=O)O)c3cc(S(=O)(=O)O)cc(S(=O)(=O)O)c23)cc1NC(=O)c1cccc(NC(=O)Nc2cccc(C(=O)Nc3cc(C(=O)Nc4ccc(S(=O)(=O)O)c5cc(S(=O)(=O)O)cc(S(=O)(=O)O)c45)ccc3C)c2)c1 [E02, Suramin Sodium]
inhibition of EV71 mouse adapted strain infection of RD cells ([1]; 10 μM of E02): completely inhibit
EC50 ([1]; Enterovirus A, EV71, RD, read-out: EC50 to reduce EV71 M.A.V. TCID50 in RD cells): 8.07 µM
EC50 [2]: 2 µM
CVA16 RNA in brain, bone marrow, muscle and serum [3]: significantly decreased
concentration reducing EV71 replication by 10-fold [4]: 7.14 μM
concentration reducing EV71 replication by 100-fold [4]: 25.35 µM
inhibition of EV71 infection, E02 added after infection (F) [5]: could not inhibit EV71 infection
inhibition of EV71 infection, E02 added during infection (D, E) [5]: can inhibit EV71 infection
inhibition of EV71 infection, E02 added prior to infection (B, C) [5]: can inhibit EV71 infection
